These results are taken from article PMC5126668 (PeerJ, 2016).

Molecules are shown by their SMILES. “And” between values parts separate entries of the source, which are not always exact repeats. Equal entries are not always repeated.

One data set has as its system rat liver. In words: Hepatic functional markers (ALT, AST) in rats after a single oral dose. The conditions noted are these: 24 h after single oral dose, mg/kg: AA I 70, BAK 200, ABT 100, GA 100, combinations 200+100. The class given is in vivo, Sprague–Dawley rats.
For data set [1], the system named is rat kidney. The data set is described as follows: Renal functional markers (BUN, Cr, NAG) in rats after a single oral dose. The settings on record: for BUN / Cr / NAG: rats, single oral dose. As for the experimental part:
ABT, a broad-spectrum nonspecific CYP inhibitor, was selected as a positive control inhibitor of CYP enzymes. Aristolochic acid A (AA I) was selected as the nephrotoxicity positive control in the study.
The samples were promptly centrifuged, and the biochemical parameters, including the levels of ALT, AST, BUN, Cr, and NAG, were then measured. The level of Kim-1 was measured in collected urine samples according to the kit instructions.

Data set [2] concerns rat kidney. In words: Kim-1 in rat urine after a single oral dose (ELISA). The data set is classed as in vivo, Sprague–Dawley rats. The settings on record: for KIM-1: single oral dose.
Method: (§1) The blood samples were taken 24 h after the administration of a single oral dose in each group. The samples were promptly centrifuged, and the biochemical parameters, including the levels of ALT, AST, BUN, Cr, and NAG, were then measured. The level of Kim-1 was measured in collected urine samples according to the kit instructions.
The mark [3] stands for this setting: rat, 24 h after single oral dose, vs vehicle control.
[4] abbreviates: individual animals (Fig. 3 data).

Method for rat liver: as §1

Regarding `COc1cccc2c1cc([N+](=O)[O-])c1c(C(=O)O)cc3c(c12)OCO3` [AA I, Aristolochic acid A], in the data set with rat liver, the “ALT (IU/L)” value stood at 41.91±3.40 IU/L and the “AST (IU/L)” value stood at 29.08±8.01 IU/L. Also, in the data set with rat kidney [1] (setting [3]), the “BUN level (in words)” value is “significantly increased”, the “Cr level (in words)” value is given as “significantly increased” and the “NAG level (in words)” value was “significantly increased”. For the same compound, in the data set with rat kidney [1] (group Mean (Fig. 3 data)), the BUN is on record as 6.405 mmol/L, the Cr was determined as 367.877 µmol/L and the NAG is given as 42.409 IU/L. Besides, in the data set on rat kidney [1] (setting [4]), the BUN was 5.797 mmol/L and 6.023 mmol/L and 6.135 mmol/L and 7.373 mmol/L and 6.698 mmol/L; the Cr is 298.782 µmol/L and 308.970 µmol/L and 369.706 µmol/L and 567.416 µmol/L and 294.508 µmol/L; the NAG was 23.912 IU/L and 43.077 IU/L and 48.176 IU/L and 27.429 IU/L and 69.451 IU/L. Moreover, the “Kim-1 level (in words)” value in the data set with rat kidney [2] (after single oral dose, vs vehicle control) is given as “significantly increased”. This compound also showed a KIM-1 in the data set on rat kidney [2] (group Mean (Fig. 3 data)) of 1538.00 pg/mL. Also, in the data set with rat kidney [2] (setting [4]), the KIM-1 is 804.00 pg/mL and 2994.00 pg/mL and 624.00 pg/mL and 2464.00 pg/mL.
